Data reported in PubChem BioAssay (NCI).
Where “and” joins values, the source holds several entries; their conditions need not be identical. Equal entries are not always repeated.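 Exposure lasted 48 hours, with cells grown in 96-well plates and compounds tested at five concentrations. The concentration for 50% growth inhibition is given as GI50. TGI: concentration producing complete growth inhibition.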

Experiments:
Assay in all cases: growth of human tumour cells (NCI), 48 h
CAKI-1 renal = tested on: CAKI-1 renal
NCI/ADR-RES ovarian = tested on: NCI/ADR-RES ovarian
M14 melanoma = tested on: M14 melanoma
A498 renal = tested on: A498 renal
NCI-H23 lung = tested on: NCI-H23 lung
BT-549 breast = tested on: BT-549 breast
UACC-62 melanoma = tested on: UACC-62 melanoma
SF-539 CNS = tested on: SF-539 CNS
HCC-2998 colon = tested on: HCC-2998 colon
HOP-92 NSCLC = tested on: HOP-92 NSCLC

Compound | GI50 (CAKI-1 renal) | TGI (CAKI-1 renal) | GI50 (NCI/ADR-RES ovarian) | TGI (NCI/ADR-RES ovarian) | GI50 (M14 melanoma) | TGI (M14 melanoma) | GI50 (A498 renal) | TGI (A498 renal) | GI50 (NCI-H23 lung) | TGI (NCI-H23 lung) | GI50 (BT-549 breast) | TGI (BT-549 breast) | GI50 (UACC-62 melanoma) | TGI (UACC-62 melanoma) | GI50 (SF-539 CNS) | TGI (SF-539 CNS) | GI50 (HCC-2998 colon) | TGI (HCC-2998 colon) | GI50 (HOP-92 NSCLC) | TGI (HOP-92 NSCLC)
O=C(/C=C/c1ccccc1Cl)c1ccc(O)cc1 | 6.87 µM | 20.2 µM | 16.4 µM | > 70.6 µM | 10.6 µM | 24.6 µM | 8.46 µM | 21.6 µM | 10.6 µM | 31.5 µM | 2.3 µM | 6.76 µM | 7.88 µM | 21.8 µM | 5.22 µM | 12.2 µM | 12.7 µM | 26.7 µM | 6.75 µM | 23.7 µM
COc1c(Nc2ncc(Cl)c(N[C@@H]3[C@H]4C=CC(C4)[C@@H]3C(N)=O)n2)ccc2c1CC[C@@H](N1CCOCC1)CC2 | 3.08 µM | 14.2 µM | 4.58 µM | 24.4 µM | 2.14 µM | 12.7 µM | 1.39 µM | 4.79 µM | 6.02 µM | 24.7 µM | 3.66 µM | 14.8 µM | 2.81 µM | 18.8 µM | 2.3 µM | 8.01 µM | 9.61 µM | 23.6 µM | 1.05 µM | 6.77 µM
Cn1c(=O)c(Sc2ccccc2F)cc2cnc(NC3CCOCC3)nc21 | > 25 µM | > 25 µM | > 25 µM | > 25 µM | > 25 µM | > 25 µM | > 25 µM | > 25 µM | > 25 µM | > 25 µM | > 25 µM | > 25 µM | > 25 µM | > 25 µM | > 25 µM | > 25 µM | > 25 µM | > 25 µM | > 25 µM | > 25 µM
O=S(=O)(c1ccc2c(c1)C(=NO)c1cc(S(=O)(=O)N3CCCCC3)ccc1-2)N1CCCCC1 | 0.427 µM and 0.147 µM | > 1 µM and 0.282 µM | > 1 µM and 0.196 µM | > 1 µM and 0.404 µM | 0.182 µM and 0.187 µM | 0.33 µM and 0.349 µM | > 1 µM and 8.88 µM | > 1 µM and 37.5 µM | > 1 µM and 0.162 µM | > 1 µM and 0.314 µM | 0.173 µM and 0.179 µM | 0.332 µM and 0.326 µM | 0.227 µM and 0.174 µM | 0.612 µM and 0.329 µM | 0.227 µM and 0.17 µM | 0.569 µM and 0.312 µM | 0.298 µM and 0.134 µM | > 1 µM and 0.273 µM | > 1 µM and 0.22 µM | > 1 µM and 0.524 µM
CCS(=O)(=O)c1ccc(OC)c(Nc2ncc(-c3cccc(-c4ccccc4F)c3)o2)c1 | 10.8 µM | > 25 µM | 15.4 µM | > 25 µM | > 25 µM | > 25 µM | 1.07 µM | 7.54 µM | > 23.8 µM | > 25 µM | > 22.2 µM | > 25 µM | > 25 µM | > 25 µM | 7.81 µM | > 25 µM | > 25 µM | > 25 µM | 3.16 µM | 20.7 µM
COc1ccccc1/C=C1\CCC(CN(C)C)C1=O (centres undefined) |  | 12 µM |  | 90.3 µM |  | 11.1 µM |  | 34.1 µM |  | 25.1 µM |  | 28.1 µM |  | 13.9 µM |  | 27.2 µM |  | 14.2 µM |  | 15.9 µM
COc1cccc(C2=NN(C(C)=O)C(c3cc(OC)c(OC)c(OC)c3)C2)c1 (centres undefined) | 2.79 µM | > 100 µM | 1.9 µM | > 20.1 µM | 1.47 µM | > 100 µM | 6.44 µM | > 30 µM | 3.48 µM | > 100 µM | 5.57 µM | > 100 µM | 3.85 µM | > 100 µM | 2.81 µM | > 25.7 µM | 2.26 µM | 16 µM | 14.9 µM | > 100 µM
NC(=O)c1cccc(N)c1 | > 100 µM | > 100 µM | > 100 µM | > 100 µM | > 100 µM | > 100 µM | > 100 µM | > 100 µM | > 100 µM | > 100 µM | > 100 µM | > 100 µM | > 100 µM | > 100 µM | > 100 µM | > 100 µM | > 100 µM | > 100 µM | > 100 µM | > 100 µM
COc1cc2c3c(n(CCCN=[N+]=[N-])c(=O)c2cc1OC)-c1ccc(N)cc1C3=O | 0.132 µM | 2.8 µM | 0.316 µM | 1.41 µM | 0.0591 µM | 0.237 µM | 0.0759 µM | 0.484 µM | 0.17 µM | 0.73 µM | 0.244 µM | 6.4 µM | 0.082 µM | 0.451 µM | 0.0919 µM | 0.325 µM | 0.258 µM | 0.856 µM | 0.163 µM | 0.86 µM
Cc1nc(NC(=O)COc2cccc(/C=C3\COc4ccccc4C3=O)c2)sc1C | 1.5 µM | 3.41 µM | 3.12 µM | 9.79 µM | 1.83 µM | 3.75 µM | 12.6 µM | 25.2 µM | 1.92 µM | 4.12 µM | 1.59 µM | 3.28 µM | 2.05 µM | 4.51 µM | 1.73 µM | 3.46 µM | 1.94 µM | 3.49 µM | 1.69 µM | 3.83 µM
Clc1ccc(-c2nc(-c3c[nH]c4ncccc34)cs2)cc1 | > 100 µM | > 100 µM | > 100 µM | > 100 µM | > 100 µM | > 100 µM | > 100 µM | > 100 µM | 97.7 µM | > 100 µM | > 100 µM | > 100 µM | > 100 µM | > 100 µM | 35.7 µM | > 100 µM | > 100 µM | > 100 µM | 0.0277 µM | > 100 µM
O=C(/C=C\c1cccc([N+](=O)[O-])c1)c1ccccc1 | 2.53 µM | 5.8 µM | 5.48 µM | 30.1 µM | 3.74 µM | 14.2 µM | 9.05 µM | 25.1 µM | 6.16 µM | 21.3 µM | 2.85 µM | 12.1 µM | 7.93 µM | 22 µM | 3.4 µM | 9.81 µM | 2.81 µM | 9.74 µM | 2.04 µM | 5.12 µM
S=C(Nc1ccc(-c2nc3ccccc3s2)cc1)Nc1ccccn1 | 17.3 µM | 45.7 µM | 24.6 µM | 66.6 µM | 25.2 µM | 60.9 µM | 19.8 µM | 44.7 µM | 25.7 µM | 70.6 µM | 14.9 µM | > 100 µM | 21.4 µM | 57.3 µM | 37.8 µM | > 100 µM | 21.9 µM | 60.2 µM | 16.7 µM | 64.1 µM
Cc1oncc1C(=O)Nc1ccc(C(F)(F)F)cc1 | 33.3 µM | > 100 µM | 45.1 µM | > 100 µM | 68.2 µM | > 100 µM | 9.97 µM | 58.7 µM | 42.4 µM | > 100 µM | 22.1 µM | > 100 µM | 36 µM | > 100 µM | 60.3 µM | > 100 µM | 64.5 µM | > 100 µM | 6.17 µM | 46 µM
CCNC(=O)Nc1ccc(-c2nc3c(c(N4CCOC[C@@H]4C)n2)CCN(C2COC2)C3)cc1 | 0.586 µM and 0.179 µM | > 31.5 µM | 2.87 µM and 1.78 µM | > 100 µM | 0.418 µM and 0.323 µM | > 100 µM | 0.0164 µM and 0.0305 µM | 0.114 µM and 0.2 µM | 0.69 µM and 0.512 µM | > 100 µM | 0.175 µM and 0.115 µM | 1.96 µM and 1.79 µM | 0.194 µM and 0.0727 µM | 1.28 µM and 0.994 µM | 0.247 µM and 0.336 µM | 1.85 µM and 3.53 µM | 0.748 µM and 0.398 µM | > 100 µM | 0.043 µM and 0.0307 µM | 0.681 µM and 0.493 µM
C=CC[Se]C(=O)c1ccccc1OC(C)=O | 2.35 µM | 5.73 µM | 1.6 µM | 4.4 µM | 1.58 µM | 3.06 µM | 0.885 µM | 5.62 µM | 1.95 µM | 4.57 µM | 1.66 µM | 3.2 µM | 1.79 µM | 3.35 µM | 1.47 µM | 2.8 µM | 1.36 µM | 2.88 µM | 2.28 µM | 6.12 µM
CNC(=O)c1cc(Oc2ccc3nc(NC(=O)c4cc(C(F)(F)F)cc(C(F)(F)F)c4)sc3c2)ccn1 | 2.75 µM | 10.7 µM | 3.67 µM | 19.1 µM | 3.61 µM | 19.4 µM | 1.45 µM | 4.51 µM | 3.37 µM | 17.7 µM | 3.05 µM | 12.4 µM | 2.71 µM | 12.1 µM | 3.14 µM | 14.8 µM | 6.63 µM | 24.7 µM | 1.68 µM | 7.21 µM
O=C1C(CN(Cc2ccccc2)Cc2ccccc2)CCCC1CN(Cc1ccccc1)Cc1ccccc1 (centres undefined) |  | 11.5 µM and > 100 µM |  | > 100 µM | 17.2 µM and 71.7 µM | 31.1 µM and > 100 µM |  | 77.2 µM and > 100 µM | 32.2 µM and > 100 µM | 50 µM and > 100 µM |  | > 100 µM | 29.2 µM and > 100 µM | 45.2 µM and > 100 µM | 17.2 µM and 50.5 µM | 33.1 µM and > 100 µM |  | > 100 µM |  | > 52.1 µM and 82.5 µM
